Laboratory results from patent publication US9139551B2, “Preparation of a new class of water-soluble ammonium 2,3-dihydroxy-5-((2R,3R)-3,5,7-trihydroxy-4-oxochroman-2-yl) phenolates and their biological activity of alcohol elimination” (priority 2014, dated 2015).
Marks after values point to notes of the source that are not given here.

Columns and labels:
[1] = tested on: mice; assay: Acute toxicity, intraperitoneal administration (mortality, LD50, body weight, dietary); type: in vivo; conditions: for Dead number: 20 mice; for Dead number / mortality: 7 days
Procedure: Acute Toxicity • Compounds PDHM/TDHM.
140 mice were divided into 7 groups (n=20), each group include 10 males and 10 females, they were treated with different concentrations of dosages and observed for 7 days. Specific experimental groups and experimental results were noted below. Note: Section 1-6 group compound are PDHM groups, and group 7 is a negative control group.
140 mice were divided into 7 groups (n=20), each group include 10 males and 10 females, they were treated with different concentrations of dosage and observed for 7 days. Note: Section 1-6 group compound are PDHM groups, and group 7 is a negative control group.

[2] = tested on: Balb/C mice; assay: Plasma EtOH concentration assay; type: in vivo; conditions: intragastric 2 mg/kg
Procedure: Plasma EtOH Concentration Assay. • Blood samples from the tail vein of mice at different time points (0, 15, 30, 45, 60, 90, 120, 240, 480 and 720 minutes) after EtOH (30% ethanol, 0.2 ml/kg bw) or TDHM (2 mg/kg bw), PDHM (2 mg/kg bw) or DHM (2 mg/kg bw) gavage were collected for plasma EtOH concentrations (plasma [EtOH]) assays. (“BW” or “bw”: body weight) • Briefly, the Balb/C mice were put into a restraint tube and the tail was warmed at 37° C. The tail vein at the tip of the tail was punched with a sharp blade. Approximately 0.2 ml venous blood was dropped to a capillary blood collection tube containing lithium heparin (Ram Scientific). Blood samples were centrifuged at 2500 rpm for 20 min. The supernatant was collected and stored at −80° C. until assay. The EtOH content of each blood sample was measured in duplicate along with EtOH standards using the alcohol oxidase reaction procedures (EnzyChrom™ Ethanol Acid Assay Kit, ECET-100) (Liang et al., 2007). The sample preparations were the same as described above.

[3] = tested on: Balb/C mice; assay: Anti-alcoholism test (agent 30 min after alcohol); type: in vivo
Source text: Anti-Alcoholism Tests • Groups design and treatment before experiment are as the same as that in Deintoxication test. […]

[4] = tested on: Balb/C mice; assay: Climbing net test; type: in vivo; conditions: 2 mg/kg gavage 30 min before alcohol
Procedure: Climbing Net Test • Groups design and treatment before experiment are as the same as that in deintoxication test. […] 30 minutes later all mice administrated alcohol (liquid Erguotou, ethonol concentration was diluted to 30%) 0.2 mL/kg BW and placed on a vertical metal net and measured the time when mice climbed on net.

[5] = tested on: Balb/C mice; assay: Dose-effect relationship of TDHM (sleep time and climbing time); type: in vivo
Procedure: Assay the Dose-Effect Relationship of TDHM • Groups design and treatment before experiment are the same as that in Deintoxication test. 30 minutes before intragastric administration of alcohol, mice were gavaged with 0.5 mg/kg BW, 2.0 mg/kg BW, 8.0 mg/kg BW, 32 mg/kg BW, 64 mg/kg BW, 128 mg/kg BW TDHM respectively. Sleep time and climbing time were recorded.

[6] = tested on: Balb/C mice; assay: Deintoxication test (agent 30 min before alcohol)
[7] = tested on: mice; assay: Acute toxicity, intragastric administration (maximum tolerated dose)
[8] = 2 mg/kg gavage 30 min after 30% ethanol
[9] = 2 mg/kg gavage 30 min after 30% ethanol, 20 mice
[10] = 8.0 mg/kg BW intragastric, drunk mice
[11] = TDHM 0.5 mg/kg gavage 30 min before alcohol
[12] = TDHM 2 mg/kg gavage 30 min before alcohol
[13] = TDHM 8 mg/kg gavage 30 min before alcohol
[14] = TDHM 32 mg/kg gavage 30 min before alcohol
[15] = TDHM 64 mg/kg gavage 30 min before alcohol
[16] = TDHM 128 mg/kg gavage 30 min before alcohol
[17] = 2 mg/kg gavage 30 min before 30% ethanol
[18] = 2 mg/kg gavage 30 min before 30% ethanol, 20 mice
[19] = agents intragastric 30 minutes before drinking

triethylammonium 2,3-dihydroxy-5-((2R,3R)-3,5,7-trihydroxy-4-oxochroman-2-yl)phenolate [TDHM]
Dead number ([1]; TDHM 636 mg/kg i.p.): 0 | mortality ([1]; TDHM 636 mg/kg i.p.): 0% | average dietary of mice ([1]; TDHM 636 mg/kg i.p., D1): 3.62 g | average dietary of mice ([1]; TDHM 636 mg/kg i.p., D2): 4.67 g | average dietary of mice ([1]; TDHM 636 mg/kg i.p., D3): 5.33 g | average dietary of mice ([1]; TDHM 636 mg/kg i.p., D4): 6.4 g | average dietary of mice ([1]; TDHM 636 mg/kg i.p., D5): 5.53 g | average dietary of mice ([1]; TDHM 636 mg/kg i.p., D6): 5.18 g | average dietary of mice ([1]; TDHM 636 mg/kg i.p., D7): 5.44 g | Dead number ([1]; TDHM 674.16 mg/kg i.p.): 4 | mortality ([1]; TDHM 674.16 mg/kg i.p.): 20% | average dietary of mice ([1]; TDHM 674.16 mg/kg i.p., D1): 3.96 g | average dietary of mice ([1]; TDHM 674.16 mg/kg i.p., D2): 4.8 g | average dietary of mice ([1]; TDHM 674.16 mg/kg i.p., D3): 6.7 g | average dietary of mice ([1]; TDHM 674.16 mg/kg i.p., D4): 6.98 g | average dietary of mice ([1]; TDHM 674.16 mg/kg i.p., D5): 5.58 g | average dietary of mice ([1]; TDHM 674.16 mg/kg i.p., D6): 5.58 g | average dietary of mice ([1]; TDHM 674.16 mg/kg i.p., D7): 5.73 g | Dead number ([1]; TDHM 714.61 mg/kg i.p.): 4 | mortality ([1]; TDHM 714.61 mg/kg i.p.): 20% | average dietary of mice ([1]; TDHM 714.61 mg/kg i.p., D1): 3.62 g | average dietary of mice ([1]; TDHM 714.61 mg/kg i.p., D2): 5.42 g | average dietary of mice ([1]; TDHM 714.61 mg/kg i.p., D3): 6.55 g | average dietary of mice ([1]; TDHM 714.61 mg/kg i.p., D4): 7.06 g | average dietary of mice ([1]; TDHM 714.61 mg/kg i.p., D5): 5.49 g | average dietary of mice ([1]; TDHM 714.61 mg/kg i.p., D6): 5.17 g | average dietary of mice ([1]; TDHM 714.61 mg/kg i.p., D7): 5.2 g | Dead number ([1]; TDHM 757.49 mg/kg i.p.): 8 | mortality ([1]; TDHM 757.49 mg/kg i.p.): 40% | average dietary of mice ([1]; TDHM 757.49 mg/kg i.p., D1): 3.95 g | average dietary of mice ([1]; TDHM 757.49 mg/kg i.p., D2): 5.3 g | average dietary of mice ([1]; TDHM 757.49 mg/kg i.p., D3): 7.08 g | average dietary of mice ([1]; TDHM 757.49 mg/kg i.p., D4): 8.18 g | average dietary of mice ([1]; TDHM 757.49 mg/kg i.p., D5): 5.78 g | average dietary of mice ([1]; TDHM 757.49 mg/kg i.p., D6): 5.83 g | average dietary of mice ([1]; TDHM 757.49 mg/kg i.p., D7): 6.25 g | Dead number ([1]; TDHM 802.94 mg/kg i.p.): 18 | mortality ([1]; TDHM 802.94 mg/kg i.p.): 90% | average dietary of mice ([1]; TDHM 802.94 mg/kg i.p., D1): 4.6 g | average dietary of mice ([1]; TDHM 802.94 mg/kg i.p., D2): 7.66 g | average dietary of mice ([1]; TDHM 802.94 mg/kg i.p., D3): 7.08 g | average dietary of mice ([1]; TDHM 802.94 mg/kg i.p., D4): 9.04 g | average dietary of mice ([1]; TDHM 802.94 mg/kg i.p., D5): 6.89 g | average dietary of mice ([1]; TDHM 802.94 mg/kg i.p., D6): 6.23 g | average dietary of mice ([1]; TDHM 802.94 mg/kg i.p., D7): 6.27 g | Dead number ([1]; TDHM 851.11 mg/kg i.p.): 20 | mortality ([1]; TDHM 851.11 mg/kg i.p.): 100% | average dietary of mice ([1]; TDHM 851.11 mg/kg i.p., D1): 0 g | average dietary of mice ([1]; TDHM 851.11 mg/kg i.p., D2): 0 g | average dietary of mice ([1]; TDHM 851.11 mg/kg i.p., D3): 0 g | average dietary of mice ([1]; TDHM 851.11 mg/kg i.p., D4): 0 g | average dietary of mice ([1]; TDHM 851.11 mg/kg i.p., D5): 0 g | average dietary of mice ([1]; TDHM 851.11 mg/kg i.p., D6): 0 g | average dietary of mice ([1]; TDHM 851.11 mg/kg i.p., D7): 0 g | effect on dietary and body weight ([1]; mice): no significant effect | LD50 ([1]; mice, i.p., observed 7 days): 748.69 mg/kg | blood alcohol concentration vs control group treated with saline [2]: significantly decreased | reduction of blood alcohol concentration compared with DHM [2]: better beneficial effect than DHM | Sleep time M ± SD [3, 8]: 99.29 ± 19.23*^& min | Tolerance time M ± SD [3, 8]: 26.28 ± 17.49 min | Dead number [3, 9]: 0 piece | Rate of drunk [3, 9]: 0% | sleep time in drunk mice comparing with DHM ([3]; 2 mg/kg gavage 30 min after alcohol): remarkably shorten | climbing time vs normal control mice [4]: significantly prolonged | climbing ([4]; vertical metal net): 471.5 ± 155.89 min | climbing time vs other concentrations of TDHM [5, 10]: longer | sleep time vs other concentrations of TDHM [5, 10]: significantly shorter | Climbing time [5, 11]: 184.5 min | Holding time [5, 11]: 147.2 min | Climbing time [5, 12]: 272.67 min | Holding time [5, 12]: 151.00 min | Climbing time [5, 13]: 368.33 min | Holding time [5, 13]: 104.5 min | Climbing time [5, 14]: 243.17 min | Holding time [5, 14]: 106.67 min | Climbing time [5, 15]: 271.83 min | Holding time [5, 15]: 84.33 min | Climbing time [5, 16]: 298.33 min | Holding time [5, 16]: 93.5 min | Sleep time M ± SD [6, 17]: 69.29 ± 48.40 min | Tolerance time M ± SD [6, 17]: 43.29 ± 23.44 min | Dead number [6, 18]: 0 piece | Rate of drunk [6, 18]: 0% | holding time comparing with DHM [6, 19]: shorten | tolerance time of righting reflex disappearing comparing with DHM [6, 19]: obviously prolonged | pathological examination of stomach, liver, kidney ([7]; mice at MTD, end of 7-day observation): no obvious degeneration, necrosis and other changes | pathology changes in livers, kidneys, hearts and lungs ([7]; mice of the toxicity experiments): No degeneration and necrosis pathology changes | deaths during the observation period at MTD ([7]; mice, gavage three times a day, 7 days): No deaths
